Test results published in patent US11149267B2, “Functional genomics using CRISPR-Cas systems, compositions, methods, screens and applications thereof” (The Broad Institute, Inc., priority 2013, dated 2021).

How the values were obtained:
[1] = Dosing of screening agents, CellTiter-Glo cell viability assay; assay type: cell-based; conditions: human, WT KBM7 cells
Experimental: (§1) Dosing of screening agents: To determine the appropriate dose of 6-TG and etoposide for screening in KBM7 and HL60 cells, cells were seeded in 96-well tissue culture plates at 4000 cells/well in 200 μL of media and were treated in triplicate with varying concentrations of 6-TG and etoposide. A CellTiter-Glo cell viability assay was performed after 4 days to assess drug toxicity. Concentrations at which the viability of WT KBM7 and HL60 cells fell below 5% were chosen.
Pooled screening: In all screens, 90 million target cells were transduced with viral sub pools and selected with blasticidin 24 hours after infection for 3 days. For the 6-TG screen, Cas9-KBM7 cells were cultured in media containing 400 nM 6-TG. For screens with etoposide, Cas9-KBM7 and Cas9-HL60 cells were cultured in media containing 130 nM and 200 nM of etoposide, respectively. Cultures of untreated Cas9-KBM7 and Cas9-HL60 cells were also maintained in parallel. All cells were passaged every 3 days, and after 12 days, cells were harvested for genomic DNA extraction. In negative selection screens, 10 million cells were harvested for genomic DNA extraction 24 hours after infection. The remaining cells were maintained for 12 doublings, before being harvested for genomic DNA extraction.

[2] = tested on: HL60 cells; assay: CellTiter-Glo cell viability assay in HL60 cells; assay type: cell-based, human; conditions: versus parental or sgAAVS1-modified HL60 cells; viability by cellular ATP
Experimental: (§2) Viability assay: Cells were seeded in 96-well tissue culture plates at 4000 cells/well in 200 μL of media under various treatment conditions. After 3 days, 35 μL of CellTiter-Glo reagent (Promega) was added to each well, mixed for 5 minutes, and the luminescence was read on the SpectraMax M5 Luminometer (Molecular Devices). All experiments were performed in triplicate.
as §1
(§3) Pooled screening: In all screens, 90 million target cells were transduced with viral sub pools and selected with blasticidin 24 hours after infection for 3 days. For the 6-TG screen, Cas9-KBM7 cells were cultured in media containing 400 nM 6-TG. For screens with etoposide, Cas9-KBM7 and Cas9-HL60 cells were cultured in media containing 130 nM and 200 nM of etoposide, respectively. Cultures of untreated Cas9-KBM7 and Cas9-HL60 cells were also maintained in parallel. […]

[3] = CellTiter-Glo cell viability assay in HL60 cells; assay type: cell-based, human; conditions: human, WT HL60 cells; at the concentration chosen for screening (200 nM etoposide); 4 days
Experimental: as §2, §1, §3

Structure (SMILES)	viability at 4 days, 400 nM ([1]; at the concentration chosen for screening (400 nM 6-TG))	resistance to etoposide of isogenic HL60 lines with sgRNAs against TOP2A and CDK6 [2]	viability at 4 days, 200 nM [3]	viability at 4 days, 130 nM ([1]; at the concentration chosen for screening (130 nM etoposide))
Nc1nc2nc[nH]c2c(=S)[nH]1 [6-TG, 6-thioguanine]	< 5%	–	–	–
COc1cc([C@@H]2c3cc4c(cc3[C@@H](O[C@@H]3O[C@@H]5CO[C@@H](C)O[C@H]5[C@H](O)[C@H]3O)[C@H]3COC(=O)[C@H]23)OCO4)cc(OC)c1O [etoposide]	–	much more resistant	< 5%	< 5%
